According to patent US20110028566A1, “COMPOSITIONS AND PRODUCTS CONTAINING CYCLOALIPHATIC DIOL ANTIMICROBIAL AGENTS AND METHODS OF USING THE COMPOSITIONS AND PRODUCTS” (EASTMAN CHEMICAL COMPANY, priority 2009, published 2011):

Tests used:
Experiment in all cases: Microbial challenge testing in BPW
Format in all cases: cell-based
Proteus vulgaris = test system: Proteus vulgaris
Protocol: (§1) The microorganisms used in challenge tests are given in Table 3, designated as either ATCC (American Type Culture Collection) or wild type. These wild type organisms were problematic organisms previously isolated from chemical products. In the description for each organism, the bacteria are indicated as either GN (Gram negative) or GP (Gram positive).
(§2) All of the microorganisms were grown in Tryptose Soy Broth (TSB), DIFCO™ available from Becton, Dickinson and Company, containing 1% dextrose. Aspergillus niger and Candida albicans were incubated at 22° C.±2° C. for at least 96 hours. All bacteria were incubated at 35° C.±2° C. in a humidified incubator for at least 96 hours.
(§3) The following procedure was followed to determine the amount of each challenge material (inoculum broth) required to produce a 10^8 cfu/mL challenge, which is equivalent to a final test-sample microbial concentration of 10^5 to 10^6 cfu (colony-forming units)/mL.
(§4) Using a sterile serological pipette, 1 mL of the growth from each TSB culture was transferred into tubes containing 9 mL phosphate buffer (pH 7.2) and mixed thoroughly. This process was repeated to make serial 1:10 dilutions. Then 0.1 mL of each sample and dilution was inoculated onto agar plates to produce the equivalent of a further 1:10 dilution. C. albicans and A. niger were inoculated onto SDA and bacteria were inoculated onto Plate Count Agar (PCA), DIFCO™ available from Becton, Dickinson and Company. The 0.1 mL aliquots were evenly distributed on the plates using the spread-plate technique. The spread-plate technique is performed by spreading the aliquot over the entire plate surface using a sterile spreading rod while rotating the plate with a rotary auto-plater. After the inoculum was absorbed completely, each plate was inverted and incubated (fungi at 22° C.±2° C. and bacteria at 35° C.±2° C.).
(§5) After incubation for at least 48 hours, colonies that had developed on the agar plates were counted and recorded with the corresponding dilution. If counting had to be delayed temporarily, plates were refrigerated, preferably no more than 24 hours, until they could be counted. The number of cfu/mL was determined by multiplying the count by the dilution factor for that particular plate.
(§6) Turbidity in Nepholemetric Turbidity Units (NTU) was measured for each serial dilution using the HF-Micro 100 Model Turbidimeter. For each microorganism, the plate counts were compared to the turbidity readings.
(§7) Control substrates (“broth alone”) were prepared for each microorganism separately in triplicate by adding 13.5 mL of BPW (pH 7.0) containing 1% (w/v) dextrose to each 20-mL glass tube; then adding 1.5 mL challenge material to produce a final concentration at time zero of 10^5 to 10^6 cfu/mL and a total volume of 15 mL.
(§8) Test sample substrates were prepared containing each test material (1,4-CHDM, etc) or combination of test materials at the concentrations shown in Tables 5 and 6. Sample substrates were prepared in triplicate, except those substrates containing PE or CG which were prepared in duplicate. Substrates were prepared by adding BPW containing 1% (w/v) dextrose to each 20-mL glass tube, then adding the test material in the amount appropriate to achieve the desired weight/volume percent (g/100 mL) and to obtain a total volume of BPW with dextrose and test material of 13.5 mL. Then 1.5 mL challenge material was added to produce a final concentration at time zero of 10^5 to 10^6 cfu/mL of the respective organism and a total test sample substrate volume of 15 mL.
(§9) After mixing, all challenged substrates were incubated at 35° C.±2° C. for 14 days and then at ambient room temperature.

Pseudomonas aeruginosa = test system: Pseudomonas aeruginosa
Protocol: as §1, §2, §3, §4, §5, §6, §7, §8, §9

Staphylococcus aureus = test system: Staphylococcus aureus
Protocol: as §1, §2, §3, §4, §5, §6, §7, §8, §9

Burkholderia cepacia = test system: Burkholderia cepacia
Protocol: as §1, §2, §3, §4, §5, §6, §7, §8, §9

Candida albicans = test system: Candida albicans
Protocol: as §1, §2
(§10) Aspergillus niger and Candida albicans were also grown on Sabouraud dextrose agar (SDA) at 22° C.±2° C. for 7 to 14 days or until full sporulation was achieved.
as §3, §4, §5, §6
On the day of challenge, the Candida albicans inoculum broth was poured through non-absorbent sterile gauze and centrifuged. The […] was then diluted with phosphate buffer (pH 7.2) until the desired turbidity was reached. Using a hemocytometer, a determination was made whether the challenge contained the desired concentration. Dilutions were made through 1.0×10^8 and three SDA spread plates were inoculated with 0.1 mL of each dilution.
as §7
(§11) Test sample substrates were prepared containing each test material (1,4-CHDM, etc) or combination of test materials at the concentrations shown in Tables 5 and 6.

Aspergillus niger = test system: Aspergillus niger
Protocol: as §1, §2, §10, §3, §4, §5, §6
Aspergillus niger cultures were harvested and spores dislodged from the SDA on which they were grown by rubbing the growth gently with a sterile inoculating loop. The spores were then mixed into the broth culture that had been incubated with a sterile magnetic stir bar to reduce pellicle formation. The spore-culture mixture was filtered repeatedly through sterile, non-absorbent cotton and harvested repeatedly, adjusting vegetative cells and spores to a level of 1.0×10^8. A hemocytometer was used to verify the final challenge concentration.
as §7, §11

With `O=c1[nH]sc2ccccc12` [BIT, 1,2-benzisothiazolin-3-one] the “Grade code P. vulqaris” value (Proteus vulgaris; 0.05%, 30 days incubation) was 4 (1001 to 10,000 colonies (thus 10,000 cfu/mL to 100,000 cfu/mL)), the “Grade code P. vulqaris” value (Proteus vulgaris; 0.2%, 3 days incubation) was 4 (1001 to 10,000 colonies (thus 10,000 cfu/mL to 100,000 cfu/mL)) and the “Grade code P. vulqaris” value (Proteus vulgaris; 0.2%, 13 days incubation) was 2 (52 to 100 colonies counted (thus 520 to 1000 cfu/mL)). The “Grade code P. vulqaris” value (Proteus vulgaris; 0.2%, 30 days incubation) was 0 (No growth detected or <1 colony (thus <10 cfu/mL)), the “Grade code P. aeruginosa” value (Pseudomonas aeruginosa; 0.05%, 3 days incubation) was 4 (1001 to 10,000 colonies (thus 10,000 cfu/mL to 100,000 cfu/mL)) and the “Grade code P. aeruginosa” value (Pseudomonas aeruginosa; 0.05%, 13 days incubation) was 4 (1001 to 10,000 colonies (thus 10,000 cfu/mL to 100,000 cfu/mL)). The “Grade code P. aeruginosa” value (Pseudomonas aeruginosa; 0.05%, 30 days incubation) was 4 (1001 to 10,000 colonies (thus 10,000 cfu/mL to 100,000 cfu/mL)), the “Grade code P. aeruginosa” value (Pseudomonas aeruginosa; 0.2%, 3 days incubation) was 3 (101 to 1000 colonies (thus 1000 to 10,000 cfu/mL)) and the “Grade code P. aeruginosa” value (Pseudomonas aeruginosa; 0.2%, 13 days incubation) was 4 (1001 to 10,000 colonies (thus 10,000 cfu/mL to 100,000 cfu/mL)). The “Grade code P. aeruginosa” value (Pseudomonas aeruginosa; 0.2%, 30 days incubation) was 4 (1001 to 10,000 colonies (thus 10,000 cfu/mL to 100,000 cfu/mL)), the “Grade code S. aureus” value (Staphylococcus aureus; 0.05%, 3 days incubation) was 4 (1001 to 10,000 colonies (thus 10,000 cfu/mL to 100,000 cfu/mL)) and the “Grade code S. aureus” value (Staphylococcus aureus; 0.05%, 14 days incubation) was 4 (1001 to 10,000 colonies (thus 10,000 cfu/mL to 100,000 cfu/mL)). For the same compound, the “Grade code S. aureus” value (Staphylococcus aureus; 0.05%, 30 days incubation) was 4 (1001 to 10,000 colonies (thus 10,000 cfu/mL to 100,000 cfu/mL)), the “Grade code S. aureus” value (Staphylococcus aureus; 0.2%, 3 days incubation) was 4 (1001 to 10,000 colonies (thus 10,000 cfu/mL to 100,000 cfu/mL)) and the “Grade code S. aureus” value (Staphylococcus aureus; 0.2%, 14 days incubation) was 3 (101 to 1000 colonies (thus 1000 to 10,000 cfu/mL)). For the same compound, the “Grade code S. aureus” value (Staphylococcus aureus; 0.2%, 30 days incubation) was 3 (101 to 1000 colonies (thus 1000 to 10,000 cfu/mL)), the “Grade code B. cepacia” value (Burkholderia cepacia; 0.05%, 3 days incubation) was 4 (1001 to 10,000 colonies (thus 10,000 cfu/mL to 100,000 cfu/mL)) and the “Grade code B. cepacia” value (Burkholderia cepacia; 0.05%, 14 days incubation) was 4 (1001 to 10,000 colonies (thus 10,000 cfu/mL to 100,000 cfu/mL)). For the same compound, the “Grade code B. cepacia” value (Burkholderia cepacia; 0.05%, 30 days incubation) was 4 (1001 to 10,000 colonies (thus 10,000 cfu/mL to 100,000 cfu/mL)), the “Grade code B. cepacia” value (Burkholderia cepacia; 0.2%, 3 days incubation) was 3 (101 to 1000 colonies (thus 1000 to 10,000 cfu/mL)) and the “Grade code B. cepacia” value (Burkholderia cepacia; 0.2%, 14 days incubation) was 1 (1 to 51 colonies counted (thus 10 to 510 cfu/mL)). The “Grade code B. cepacia” value (Burkholderia cepacia; 0.2%, 30 days incubation) was 2 (52 to 100 colonies counted (thus 520 to 1000 cfu/mL)), the “Grade code C. albicans” value (Candida albicans; 0.05%, 3 days incubation) was 4 (1001 to 10,000 colonies (thus 10,000 cfu/mL to 100,000 cfu/mL)) and the “Grade code C. albicans” value (Candida albicans; 0.05%, 14 days incubation) was 4 (1001 to 10,000 colonies (thus 10,000 cfu/mL to 100,000 cfu/mL)). The “Grade code C. albicans” value (Candida albicans; 0.05%, 30 days incubation) was 4 (1001 to 10,000 colonies (thus 10,000 cfu/mL to 100,000 cfu/mL)), the “Grade code C. albicans” value (Candida albicans; 0.2%, 3 days incubation) was 4 (1001 to 10,000 colonies (thus 10,000 cfu/mL to 100,000 cfu/mL)) and the “Grade code C. albicans” value (Candida albicans; 0.2%, 14 days incubation) was 3 (101 to 1000 colonies (thus 1000 to 10,000 cfu/mL)). For the same compound, the “Grade code C. albicans” value (Candida albicans; 0.2%, 30 days incubation) was 3 (101 to 1000 colonies (thus 1000 to 10,000 cfu/mL)), the “Grade code A. niger” value (Aspergillus niger; 0.05%, 3 days incubation) was 4 and the “Grade code A. niger” value (Aspergillus niger; 0.05%, 13 days incubation) was 4. The “Grade code A. niger” value (Aspergillus niger; 0.05%, 30 days incubation) was 4, the “Grade code A. niger” value (Aspergillus niger; 0.2%, 3 days incubation) was 4 and the “Grade code A. niger” value (Aspergillus niger; 0.2%, 13 days incubation) was 4. For the same compound, the “Grade code A. niger” value (Aspergillus niger; 0.2%, 30 days incubation) was 4.
